In patent US7618630B2, “Methods of treating multiple myeloma and myeloma-induced bone resorption using integrin antagonists” (Board of Regents, The University of Texas System, priority 1998, dated 2009):
“Also recorded” adds a separate entry of the source.

Tests used:
5TGM1 myeloma cells [1] = assay: Survival by onset of hindleg paralysis of 5TGM1-bearing mice, melphalan and PS/2 mAb; assay type: in vivo, scid/nu/bg mice
Description: We also examined the effects of the combined administration of melphalan (100 μg/mouse) and PS/2 mAb on survival of 5TGM1-bearing mice (scid/nu/bg mice). We evaluated survival by the onset of hindleg paralysis (i.e., the onset of hindleg paralysis was the end-point in these experiments). […] Thus, we can reduce the dose of Melphalan to a quarter in the presence of the anti-α4Ab, as compared to melphalan alone.

GFP+ 5TGM1 myeloma cells = assay: Combination treatment with PS/2 and melphalan in C57BL/KaLwRij model of multiple myeloma; assay type: in vivo, C57BL/KaLwRij mice; conditions: day 27
Description: Additive/synergistic effects of the combination of PS/2 mAb and melphalan were seen under most conditions. In these experiments, the 5TGM1 cells injected into the animals were transfected with an expression vector containing the GFP gene. These myeloma cells expressed the GFP protein, allowing the myeloma cells to be tracked directly as GFP+ myeloma cells. These myeloma cells could also be tracked as mIgG2b positive cells. The data were only useful on day 27.

[2] = system: 5TGM1 mouse myeloma cells; assay: α4Ab and melphalan in 5TGM1-inoculated xid-nu-bg mice; assay type: in vivo
Description: Here, we studied the effects of a neutralizing antibody to α4 integrin (α4Ab), which disrupts stromal cells/myeloma cell interactions, on the sensitivity of myeloma to melphalan, a most widely-used chemotherapeutic agent for myeloma, using the 5TGM1 mouse myeloma cells that reproducibly cause extensive osteolysis in tumor-bearing animals. The α4Ab (100-200 μg/mouse, i.p., 2 or 3 times a week) and melphalan (50, 100, 200 μg/mouse, i.p., once a week) were administered following inoculation of 5TGM1 cells in the tail vein in male xid-nu-bg mice.

5TGM1 myeloma cells [3] = assay: Combined effects of melphalan and anti-alpha 4 integrin Ab in 5TGM1 model (scid/nu/bg mice, day 28); assay type: in vivo; conditions: mAb 200 μg first week then 100 μg, melphalan three times
Description: In one particular set of experiments on the combined effects of melphalan and anti-alpha 4 integrin Ab in 5TGM1 model, as shown in an experimental protocol in FIG. 7, an initial high dose of 200 μg mAb was given during the first week, followed by a maintenance dose of 100 μg. Melphalan was given three times. Animals (scid/nu/bg mice) were sacrificed at day 28 and serum IgG2b levels (a surrogate marker of tumor burden) and tumor burden in bone were measured (histomorphometric analysis of bones). […] The data were a summary of two experiments combined.

VLA-4 and VLA-5 = conditions: cited from earlier work
VLA-4 = VLA-4 (Homo sapiens, UniProt P05556+P13612); conditions: cited from earlier work
Sequence of VLA-4 (P13612 34-1032): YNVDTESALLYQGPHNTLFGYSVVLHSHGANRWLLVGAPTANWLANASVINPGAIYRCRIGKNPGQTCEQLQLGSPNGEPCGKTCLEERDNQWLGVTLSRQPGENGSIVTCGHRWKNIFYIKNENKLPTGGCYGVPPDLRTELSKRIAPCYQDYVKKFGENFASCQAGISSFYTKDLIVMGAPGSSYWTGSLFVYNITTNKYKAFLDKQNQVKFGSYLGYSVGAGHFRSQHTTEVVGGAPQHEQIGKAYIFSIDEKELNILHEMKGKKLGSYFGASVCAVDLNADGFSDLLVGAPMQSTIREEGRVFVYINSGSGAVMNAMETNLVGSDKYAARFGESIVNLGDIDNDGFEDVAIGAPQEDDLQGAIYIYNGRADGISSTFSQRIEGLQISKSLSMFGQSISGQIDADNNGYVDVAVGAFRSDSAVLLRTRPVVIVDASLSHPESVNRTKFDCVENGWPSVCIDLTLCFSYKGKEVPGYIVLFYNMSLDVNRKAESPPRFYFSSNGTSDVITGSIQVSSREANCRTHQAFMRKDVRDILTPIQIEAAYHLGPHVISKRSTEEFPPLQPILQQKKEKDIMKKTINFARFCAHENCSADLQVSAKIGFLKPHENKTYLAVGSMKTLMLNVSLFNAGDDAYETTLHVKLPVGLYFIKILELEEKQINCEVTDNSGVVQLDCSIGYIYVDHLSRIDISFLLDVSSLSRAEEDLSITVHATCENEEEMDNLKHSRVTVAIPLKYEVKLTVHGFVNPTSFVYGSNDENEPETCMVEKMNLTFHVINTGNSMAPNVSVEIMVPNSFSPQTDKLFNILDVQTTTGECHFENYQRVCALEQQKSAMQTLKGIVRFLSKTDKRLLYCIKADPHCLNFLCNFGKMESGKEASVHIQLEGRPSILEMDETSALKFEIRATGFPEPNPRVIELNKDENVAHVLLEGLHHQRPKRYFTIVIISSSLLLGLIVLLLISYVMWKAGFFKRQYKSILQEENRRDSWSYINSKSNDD
Sequence of VLA-4 (P05556 21-798): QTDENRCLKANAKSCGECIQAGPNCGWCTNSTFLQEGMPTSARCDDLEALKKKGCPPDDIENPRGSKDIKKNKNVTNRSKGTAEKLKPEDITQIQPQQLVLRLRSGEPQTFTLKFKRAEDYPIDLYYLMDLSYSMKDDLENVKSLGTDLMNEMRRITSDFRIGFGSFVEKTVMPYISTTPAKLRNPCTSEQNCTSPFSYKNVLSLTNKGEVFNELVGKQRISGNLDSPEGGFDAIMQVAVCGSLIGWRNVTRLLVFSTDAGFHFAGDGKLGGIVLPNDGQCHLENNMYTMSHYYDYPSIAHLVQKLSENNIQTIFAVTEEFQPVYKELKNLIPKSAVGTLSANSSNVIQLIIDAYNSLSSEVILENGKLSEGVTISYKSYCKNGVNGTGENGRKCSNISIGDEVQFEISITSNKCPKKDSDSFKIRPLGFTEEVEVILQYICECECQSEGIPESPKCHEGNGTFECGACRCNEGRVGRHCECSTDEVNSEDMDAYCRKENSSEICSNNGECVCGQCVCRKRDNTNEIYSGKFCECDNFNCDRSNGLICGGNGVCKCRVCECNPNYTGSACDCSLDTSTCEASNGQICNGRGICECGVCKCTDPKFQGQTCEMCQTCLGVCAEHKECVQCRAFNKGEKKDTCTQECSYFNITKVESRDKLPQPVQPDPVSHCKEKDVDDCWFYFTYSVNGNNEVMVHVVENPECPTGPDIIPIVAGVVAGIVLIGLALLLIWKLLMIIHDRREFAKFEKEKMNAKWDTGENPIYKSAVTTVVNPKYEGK

[4] = biological target: VCAM-1 expressed on ST2 mouse bone marrow stromal cells (murine) (UniProt P29533); assay: cell-based or functional assay
Sequence of VCAM-1 expressed on ST2 mouse bone marrow stromal cells (murine) (P29533 25-739): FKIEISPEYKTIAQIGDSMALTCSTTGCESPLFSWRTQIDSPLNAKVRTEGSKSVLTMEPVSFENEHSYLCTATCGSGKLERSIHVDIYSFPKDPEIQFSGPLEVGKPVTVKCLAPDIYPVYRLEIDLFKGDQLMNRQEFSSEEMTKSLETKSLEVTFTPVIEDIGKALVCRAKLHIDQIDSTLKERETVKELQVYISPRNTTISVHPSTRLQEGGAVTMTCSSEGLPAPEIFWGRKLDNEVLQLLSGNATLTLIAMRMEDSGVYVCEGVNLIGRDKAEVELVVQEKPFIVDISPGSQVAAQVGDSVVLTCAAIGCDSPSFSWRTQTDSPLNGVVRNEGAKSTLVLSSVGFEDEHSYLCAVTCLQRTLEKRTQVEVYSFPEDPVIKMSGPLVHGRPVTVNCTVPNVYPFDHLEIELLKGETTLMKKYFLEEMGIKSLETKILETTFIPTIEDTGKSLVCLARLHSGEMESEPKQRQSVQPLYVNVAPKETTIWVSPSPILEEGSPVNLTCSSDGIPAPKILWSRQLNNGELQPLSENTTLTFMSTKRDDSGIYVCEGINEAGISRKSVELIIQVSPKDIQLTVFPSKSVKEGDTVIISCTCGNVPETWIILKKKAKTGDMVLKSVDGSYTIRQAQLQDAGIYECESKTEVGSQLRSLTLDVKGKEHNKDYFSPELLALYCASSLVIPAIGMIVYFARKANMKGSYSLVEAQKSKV

[5] = biological target: integrin VLA-4 expressed on 5TGM1 murine myeloma cells (murine) (UniProt Q00651); assay: cell-based or functional assay
Sequence of integrin VLA-4 expressed on 5TGM1 murine myeloma cells (murine) (Q00651 41-1039, chain 1 of 2): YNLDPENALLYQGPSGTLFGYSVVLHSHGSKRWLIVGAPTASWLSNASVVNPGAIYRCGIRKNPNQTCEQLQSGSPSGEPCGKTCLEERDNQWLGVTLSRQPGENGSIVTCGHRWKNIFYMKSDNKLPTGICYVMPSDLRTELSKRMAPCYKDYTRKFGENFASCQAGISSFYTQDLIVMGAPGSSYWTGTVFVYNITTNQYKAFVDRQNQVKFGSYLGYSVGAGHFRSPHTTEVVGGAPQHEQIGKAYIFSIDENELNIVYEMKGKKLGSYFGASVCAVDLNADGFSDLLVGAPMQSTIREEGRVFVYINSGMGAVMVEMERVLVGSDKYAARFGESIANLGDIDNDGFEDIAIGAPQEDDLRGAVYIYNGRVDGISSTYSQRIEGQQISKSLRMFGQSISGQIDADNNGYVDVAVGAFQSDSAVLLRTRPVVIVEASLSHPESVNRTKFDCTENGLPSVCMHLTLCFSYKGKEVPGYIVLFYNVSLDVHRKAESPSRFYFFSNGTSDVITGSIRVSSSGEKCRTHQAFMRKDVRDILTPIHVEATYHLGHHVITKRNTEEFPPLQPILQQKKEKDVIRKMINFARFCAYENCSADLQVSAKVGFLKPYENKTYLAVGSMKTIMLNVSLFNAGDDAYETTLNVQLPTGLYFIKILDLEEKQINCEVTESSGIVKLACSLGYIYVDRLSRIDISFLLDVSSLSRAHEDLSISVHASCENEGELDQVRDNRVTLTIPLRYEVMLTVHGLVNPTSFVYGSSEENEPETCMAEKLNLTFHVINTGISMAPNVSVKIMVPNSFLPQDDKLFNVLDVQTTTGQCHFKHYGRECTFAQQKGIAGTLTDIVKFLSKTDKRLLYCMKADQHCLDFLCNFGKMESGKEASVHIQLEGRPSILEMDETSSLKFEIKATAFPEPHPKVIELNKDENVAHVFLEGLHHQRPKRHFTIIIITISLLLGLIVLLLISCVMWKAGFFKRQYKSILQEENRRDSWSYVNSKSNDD
Sequence of integrin VLA-4 expressed on 5TGM1 murine myeloma cells (murine) (P09055 21-798, chain 2 of 2, further chain): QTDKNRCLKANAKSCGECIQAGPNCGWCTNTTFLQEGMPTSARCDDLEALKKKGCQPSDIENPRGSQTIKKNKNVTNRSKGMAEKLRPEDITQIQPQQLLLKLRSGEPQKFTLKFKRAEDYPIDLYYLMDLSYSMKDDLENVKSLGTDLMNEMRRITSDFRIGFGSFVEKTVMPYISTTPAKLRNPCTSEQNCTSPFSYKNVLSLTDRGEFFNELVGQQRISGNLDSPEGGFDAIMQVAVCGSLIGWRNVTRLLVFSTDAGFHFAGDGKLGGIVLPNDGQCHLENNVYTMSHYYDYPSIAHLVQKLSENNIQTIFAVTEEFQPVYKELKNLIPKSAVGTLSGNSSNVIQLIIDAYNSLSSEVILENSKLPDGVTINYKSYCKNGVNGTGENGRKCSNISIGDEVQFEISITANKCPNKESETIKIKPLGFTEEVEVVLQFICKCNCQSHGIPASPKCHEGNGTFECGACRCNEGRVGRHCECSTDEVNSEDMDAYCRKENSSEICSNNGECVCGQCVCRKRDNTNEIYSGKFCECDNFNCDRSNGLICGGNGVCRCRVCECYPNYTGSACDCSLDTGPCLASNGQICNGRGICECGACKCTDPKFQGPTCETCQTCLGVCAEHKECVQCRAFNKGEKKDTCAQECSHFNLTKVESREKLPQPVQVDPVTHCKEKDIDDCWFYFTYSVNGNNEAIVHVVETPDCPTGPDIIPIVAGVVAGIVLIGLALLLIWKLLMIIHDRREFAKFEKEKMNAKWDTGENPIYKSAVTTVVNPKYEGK

Rank ligand mRNA = assay: Expression of Rank ligand mRNA in 5TGM1 and ST2 cells; assay type: cell-based, mouse
Description: Because Rank ligand appears to be an important mediator of OCL formation and may be the final common pathway for the effects of osteoclastogenic cytokines on OCL formation, we have examined the expression of Rank ligand in 5TGM1 and ST2 cells both individually and when cocultured. We find that coculture of 5TGM1 and ST2 cells induces Rank ligand mRNA in the ST2 cells.

5TGM1 cells = assay: Osteoclastogenic activity of conditioned medium of sVCAM-1-treated 5TGM1 cells in mouse marrow cultures; assay type: cell-based; conditions: 6 days, 1×10^−7 M sVCAM-1
Description: Conditioned medium was harvested from 5TGM1 cells cultured in the presence or absence of sVCAM-1 (1×10^−8 to 1×10^−7 Molar) for 24 hours. Osteoclastogenic activity of these conditioned media was assayed in the mouse marrow cultures. Bone marrow cells (1e6/well) were plated into 48-well plates, and cultured in the presence of conditioned media (hatched bars) or control medium (IMDM) containing the same concentrations of sVCAM-1 (open bars). After 6 days, cultures were fixed and the number of TRAP-positive multinucleated OC-like cells (TRAP+MNC) was determined.

[6] = system: 45Ca-labeled fetal rat long bones; assay: Bone resorption in organ cultures of 45Ca-labeled fetal rat long bones; assay type: cell-based
Description: Conditioned media harvested from 5TGM1 cultures were assayed for bone-resorbing activity by organ cultures of 45Ca-labeled fetal rat long bones as described previously (Mbalaviele 1995). Pregnant rats were injected with 250 uCi of 45Ca (New England Nuclear) on the 18th day of gestation. Radius and ulna bone shafts were obtained from 19-day fetuses by microdissection, and precultured for 24 h in BGJ medium (Sigma) supplemented with 0.1% BSA between air and liquid-phase on stainless mesh grids. Bones were then cultured in the presence of conditioned media (50% v/v) or in control medium for 120 hours. The media were changed once at 48 hours. At the end of the culture, bones were incubated in ice-cold 5% trichloroacetic acid for 2 h, and 45Ca radioactivity in bones and media determined in a liquid scintillation counter. Bone resorption was quantitated as the percentage of 45Ca released into the medium from bones as calculated by: (45Ca count in medium)/(45Ca count in medium and bone)×100.

In the case of `N[C@@H](Cc1ccc(N(CCCl)CCCl)cc1)C(=O)O` [melphalan], the “onset of hindleg paralysis” value (5TGM1 myeloma cells [1]; melphalan 100 μg/mouse and/or anti-α4Ab) is reported as “had no effect on the onset of hindleg paralysis”, the “onset of hindleg paralysis” value (5TGM1 myeloma cells [1]; melphalan alone 200 μg/mouse) is reported as “significantly delayed the onset” and the mIgG2b plasma levels (GFP+ 5TGM1 myeloma cells) is reported as “unaffected”. The “percentage of GFP+ myeloma cells in blood” value (GFP+ 5TGM1 myeloma cells) was “unaffected”, the “percentage of GFP+ myeloma cells in bone marrow” value (GFP+ 5TGM1 myeloma cells) was “Neither melphalan nor PS/2 mAb alone affected” and the “percentage of GFP+ myeloma cells in spleen” value (GFP+ 5TGM1 myeloma cells) was “unaffected”. The “serum IgG2 levels” value ([2]; melphalan alone 200 μg/mouse) was “significantly suppressed”, the “serum IgG2 levels” value ([2]; melphalan alone 50 and 100 μg/mouse i.p. once a week) was “failed to suppress serum IgG2 levels” and the “serum IgG2b levels” value (5TGM1 myeloma cells [3]) was “only modestly affected”.

For Arg-Cys-Asp-TPro-Cys, the “inhibition of VLA-4 and VLA-5 adhesion to fibronectin” value (VLA-4 and VLA-5) is given as “can inhibit both VLA-4 and VLA-5 adhesion to fibronectin”.

For “Glu-Ile-Leu-Asp-Val (EILDV) [pentapeptide of the fibronectin CS-1 region]”, the “inhibitory activity against fibronectin-dependent cell adhesion” value (VLA-4) is listed as “possessed inhibitory activity against fibronectin-dependent cell adhesion”.

In the case of “Leu-Asp-Val-Pro-Ser (LDVPS) [pentapeptide of the fibronectin CS-1 region]”, the “inhibitory activity against fibronectin-dependent cell adhesion” value (VLA-4) is given as “possessed inhibitory activity against fibronectin-dependent cell adhesion”.

mAb M/K-2.7 to murine VCAM-1 (antibody) showed an attachment of 5TGM1 cells to ST2 monolayers [4] of 50 to 80%.

mAb PS/2 to VLA-4 (antibody) gave an attachment of 5TGM1 cells to ST2 monolayers [5] of 50 to 80%.

B1: sVCAM-1: recombinant soluble VCAM-1 containing the 7 extracellular domains of human VCAM-1 (protein)
chain: FKIETTPESRYLAQIGDSVSLTCSTTGCESPFFSWRTQIDSPLNGKVTNEGTTSTLTMNPVSFGNEHSYLCTATCESRKLEKGIQVEIYSFPKDPEIHLSGPLEAGKPITVKCSVADVYPFDRLEIDLLKGDHLMKSQEFLEDADRKSLETKSLEVTFTPVIEDIGKVLVCRAKLHIDEMDSVPTVRQAVKELQVYISPKNTVISVNPSTKLQEGGSVTMTCSSEGLPAPEIFWSKKLDNGNLQHLSGNATLTLIAMRMEDSGIYVCEGVNLIGKNRKEVELIVQEKPFTVEISPGPRIAAQIGDSVMLTCSVMGCESPSFSWRTQIDSPLSGKVRSEGTNSTLTLSPVSFENEHSYLCTVTCGHKKLEKGIQVELYSFPRDPEIEMSGGLVNGSSVTVSCKVPSVYPLDRLEIELLKGETILENIEFLEDTDMKSLENKSLEMTFIPTIEDTGKALVCQAKLHIDDMEFEPKQRQSTQTLYVNVAPRDTTVLVSPSSILEEGSSVNMTCLSQGFPAPKILWSRQLPNGELQPLSENATLTLISTKMEDSGVYLCEGINQAGRSRKEVELIIQVTPKDIKLTAFPSESVKEGDTVIISCTCGNVPETWIILKKKAETGDTVLKSIDGAYTIRKAQLKDAGVYECESKNKVGSQLRSLTLDVQGRENNKDYFSPE
In the case of B1, the “Rank ligand expression in 5TGM1 cells” value (Rank ligand mRNA; 5TGM1 cells treated with sVCAM-1) is reported as “they do so when treated with sVCAM-1”, the “Rank ligand mRNA in ST2 cells” value (Rank ligand mRNA; conditioned medium from 5TGM1 cells treated with sVCAM-1) is reported as “induced Rank ligand mRNA in ST2 cells” and the “OC-like cell (TRAP(+)MNC) formation by conditioned medium from 5TGM1 cells treated with sVCAM-1” value (5TGM1 cells) is reported as “showed increased activity of OC-like cell formation; also recorded: increased TRAP(+)MNC formation”. The “bone resorption by conditioned medium of 5TGM1 treated with sVCAM-1” value [6] was “increased bone resorption in fetal rat long bones in a dose-dependent manner” and the “bone resorption, soluble VCAM-1 itself” value [6] was “had no effects on bone resorption”.
